This note sets out measurements from US4405609A, “Combination and method for increasing feed utilization efficiency in ruminants” (Eli Lilly and Company, priority 1982, dated 1983).

The assay relates to Hereford crossbred steers. Briefly: 140-day narasin/actaplanin feed study. The assay is classed as in vivo. An excerpt: Another study was designed to show the unexpected interaction of the polyether narasin in combination with actaplanin. Two hundred forty Hereford crossbred steers averaging about 700 pounds and about 18 months of age were employed. The animals were fed corn silage and high moisture corn, plus two pounds per head per day of the following cattle supplement:
The treatments comprised three dose levels of narasin (0, 4 and 12 g./T.) and four dose levels of actaplanin (0, 10, 20 and 40 g./T.). The animals were randomly assigned to four blocks of twelve partially sheltered pens, each with five animals per pen. The treatments were allotted at random within the four 12-pen blocks such that each treatment was represented in each block. Each of the twelve treatments was replicated four times.

For `CC[C@@H](C(=O)O)[C@@H]1O[C@@H]([C@@H](C)[C@H](O)[C@H](C)C(=O)[C@H](CC)[C@H]2O[C@]3(C=C[C@@H](O)[C@]4(CC[C@@](C)([C@H]5CC[C@](O)(CC)[C@H](C)O5)O4)O3)[C@H](C)C[C@@H]2C)[C@@H](C)C[C@@H]1C` [narasin], where the note is “narasin 4, actaplanin 0 g./T.”, the “Average Daily Dry Matter Intake” value stood at 16.41 Pounds, the “Average Daily Weight Gain” value is 2.53 Pounds and the “Average Feed Efficiency” value is on record as 6.46. In addition, under “narasin 12, actaplanin 0 g./T.”, the “Average Daily Dry Matter Intake” value is listed as 15.52 Pounds, the “Average Daily Weight Gain” value was 2.52 Pounds and the “Average Feed Efficiency” value worked out at 6.18. The “decrease in feed intake versus untreated controls” value (narasin alone at 12 g./T.) is 7.2%.
